# Positions of bridges follow the written chain, without caps; N, C: chain ends. Non-standard residues stand in square brackets, D forms with d. Residues, ends and D or L forms follow the SMILES beside them. Chains are numbered I, II in the order given. PEG4 = NCCOCCOCCOCCOCCC(=O)O
# Experiments:
# BALB/c mice = experiment: Acute toxicity in mice, single i.v. dose; assay type: in vivo, mouse
# Description: As preliminary toxicity evaluation we first compared the acute toxicity of SET-M33L and SET-M33L-PEG with that of colistin. Animals (10 BALB/c mice/group) were injected i.v. with different amounts of SET-M33L, SET-M33L-PEG or colistin, in single dose, in the range 5–40 mg/kg (Fig. 4), and were monitored for 4 days after inoculation of the peptide. […] At 40 mg/Kg SET-M33L and SET-M33L-PEG produced similar toxicity profiles with strong signs of toxicity and 90–100% mortality after 96 hours. Colistin produced strong signs of toxicity already at 10 mg/Kg: 50% mortality immediately after inoculation and 70% mortality after 24 hours. Colistin induced sudden death in 100% of mice at 20 and 40 mg/Kg.
# Mice were treated by a single i.v. administration of different amounts (40, 20, 10, 5 mg/Kg) of SET-M33L, SET-M33L-PEG or colistin sulfate (Sigma-Aldrich, C4461). Signs of toxicity were checked four times a day by visual inspection. A toxicity score was assigned for the following signs: wiry coat and poor motility = mild signs; very wiry coat, abundant lachrymation and poor motility even under stimulation = manifest signs. Animals were monitored for 4 days after inoculation of the peptide. Mice were weighed every day from arrival to the last day of the experiment. Moribund animals were killed humanely to avoid unnecessary distress.
# P. aeruginosa PAO1 [1] = experiment: Sepsis model in neutropenic BALB/c mice, survival; assay type: in vivo, Pseudomonas aeruginosa; details: PAO1 1.5 × 10^3 CFU/mouse i.p., 5 mg/Kg i.v. twice, 24 and 72 h post-infection, 12 days, 10 mice/group
# Description: Neutropenic mice were injected i.p. with a lethal amount of P. aeruginosa PAO1 (1.5 × 10^3 CFU/mouse). Then mice were treated twice i.v. with SET-M33L or SET-M33L-PEG (5 mg/Kg), 24 and 72 hours post-infection. Then animals were monitored for survival for 12 days. Survivals of 60% and 80% were obtained with SET-M33L or SET-M33L-PEG, respectively (Fig. 1). Note that this is a model of acute and rapidly progressive infection, since animals start to show signs of disease within 24 hours and controls died after 40–65 hours. Treatment with the peptides begun 24 h after onset of the infection. The relatively long interval between i.p. inoculation of bacteria and the start of i.v. treatment in animals with suppressed immune systems is a valid indication of the potency of the peptides in vivo.
# Animal procedures were approved by the Ethics Committees of the Azienda Ospedaliera Universitaria Senese on November 18, 2010, and of the Italian Ministry of Health on September 21, 2012. Eight-week-old (20 g) BALB/c female mice (Charles River) were used in all experiments. […] All p values were calculated using GraphPad Prism 5.0 software.
# In the Pseudomonas model of sepsis[35] animals were rendered neutropenic by i.p. administration of cyclophosphamide (Sigma-Aldrich C7397) at 150 mg/kg (300 μl of a 10 mg/ml solution) 4 days and 1 day before infection. […] Surviving mice were monitored for 12 days. […]
# P. aeruginosa PAO1 [2] = experiment: Lung infection model in neutropenic BALB/c mice, i.v. treatment, survival; assay type: in vivo, Pseudomonas aeruginosa; details: PAO1 1.5 × 10^3 CFU/mouse i.t., 5 mg/Kg i.v. twice, 1 and 16 h post-infection, 10 days, 10 mice/group
# Description: Neutropenic mice were injected intra-tracheally (i.t.) with a lethal amount of P. aeruginosa PAO1 (1.5 × 10^3 CFU/mouse). They were then treated twice i.v. 1 and 16 hours post-infection with SET-M33L or SET-M33L-PEG 5 mg/Kg and monitored for survival for 10 days. We obtained 40% and 60% survival with SET-M33L and SET-M33L-PEG, respectively (Fig. 2A).
# Animal procedures were approved by the Ethics Committees of the Azienda Ospedaliera Universitaria Senese on November 18, 2010, and of the Italian Ministry of Health on September 21, 2012. Eight-week-old (20 g) BALB/c female mice (Charles River) were used in all experiments. The animals were maintained and handled in accordance with the Guidelines for Accommodation and Care of Animals (European Convention for the Protection of Vertebrate Animals Used for Experimental and Other Scientific Purposes) and internal guidelines. For each experiment the animals were housed in groups of five mice per cage upon arrival and maintained with food and water ad libitum for 5 days before the beginning of treatment. All p values were calculated using GraphPad Prism 5.0 software.
# We set up two lung infection models, one for i.v. and the other for intra-tracheal (i.t.) treatment. In the i.v. model, animals were made neutropenic as described in the sepsis model. […] Surviving mice were monitored for 10 days. […]
smiles,measurement,setting,value
"CC[C@H](C)[C@H](NC(=O)[C@H](CCCCN)NC(=O)[C@@H](N)CCCCN)C(=O)N[C@@H](CCCNC(=N)N)C(=O)N[C@H](C(=O)N[C@@H](CCCNC(=N)N)C(=O)N[C@@H](CC(C)C)C(=O)N[C@@H](CO)C(=O)N[C@@H](C)C(=O)NCCCC[C@H](NC(=O)[C@H](C)NC(=O)[C@H](CO)NC(=O)[C@H](CC(C)C)NC(=O)[C@H](CCCNC(=N)N)NC(=O)[C@@H](NC(=O)[C@H](CCCNC(=N)N)NC(=O)[C@@H](NC(=O)[C@H](CCCCN)NC(=O)[C@@H](N)CCCCN)[C@@H](C)CC)C(C)C)C(=O)NCCCC[C@H](NC(=O)[C@H](CCCCNC(=O)[C@H](C)NC(=O)[C@H](CO)NC(=O)[C@H](CC(C)C)NC(=O)[C@H](CCCNC(=N)N)NC(=O)[C@@H](NC(=O)[C@H](CCCNC(=N)N)NC(=O)[C@@H](NC(=O)[C@H](CCCCN)NC(=O)[C@@H](N)CCCCN)[C@@H](C)CC)C(C)C)NC(=O)[C@H](C)NC(=O)[C@H](CO)NC(=O)[C@H](CC(C)C)NC(=O)[C@H](CCCNC(=N)N)NC(=O)[C@@H](NC(=O)[C@H](CCCNC(=N)N)NC(=O)[C@@H](NC(=O)[C@H](CCCCN)NC(=O)[C@@H](N)CCCCN)[C@@H](C)CC)C(C)C)C(=O)NCCOCCOCCOCCOCCC(N)=O)C(C)C [SET-M33L-PEG] (I: H-KKIRVRLSAKK[PEG4]-NH2 / II: H-KKIRVRLSAK / III: H-KKIRVRLSA / IV: H-KKIRVRLSA; amide I:10-IV:C, I:11-II:C, II:10-III:C; N-terminus assumed)",mortality,"BALB/c mice; single i.v. dose 40 mg/Kg, after 96 hours",90–100%
same,lethality and signs of toxicity,"BALB/c mice; single i.v. dose up to 20 mg/kg, monitored 4 days, 10 BALB/c mice/group",not lethal and no signs of toxicity were observed
same,survival,P. aeruginosa PAO1 [1],80%
same,survival,P. aeruginosa PAO1 [2],60%
